Biological target: Dual specificity tyrosine-phosphorylation-regulated kinase 1A (Homo sapiens, UniProt Q13627)
Experiment: Inhibition of DYRK1a

**Q.** With `O=C1C=C(c2ccc(O)c(O)c2O)C(=O)c2c(O)ccc(O)c21` as the compound, how does the IC50 read?
**A.** 21.4 µM

Test system: not listed separately
Experiment: Inhibition of CK1

**Q.** For `C[N+](C)(C)CC(=O)OCc1cc(O)c2c(c1)C(=O)c1cccc(O)c1C2=O`, which IC50 is on record?
**A.** > 40 µM

**Q.** For `Cc1coc2cc3oc(=O)c(NC(=O)CN)cc3cc12`, which IC50 is on record?
**A.** > 40 µM

**Q.** For `O=C1C=C(c2ccc(O)c(O)c2O)C(=O)c2c(O)ccc(O)c21`, which IC50 is on record?
**A.** > 40 µM

**Q.** For `O=c1ccc2cc(S(=O)(=O)N3CCNCC3)cc(Cl)c2o1`, which IC50 is on record?
**A.** > 40 µM

**Q.** With `O=C1NC(=O)C(=Cc2ccc(O)cc2O)C(=O)N1` as the compound, how does the IC50 read?
**A.** > 40 µM

**Q.** With `C[N+]1(Cc2cc(O)c3c(c2)C(=O)c2cccc(O)c2C3=O)CCOCC1` as the compound, how does the IC50 read?
**A.** 10 µM

**Q.** For `CN(C)c1ccc(C=C2C(=O)NC(=O)NC2=O)cc1`, which IC50 is on record?
**A.** > 40 µM

**Q.** With `Cc1ccc(S(=O)(=O)Oc2ccc3ccc(O)cc3c2)cc1` as the compound, how does the IC50 read?
**A.** > 40 µM

**Q.** Which IC50 does the source give for `O=C1C=C(c2ccc(O)c(O)c2O)C(=O)c2c1cccc2[N+](=O)[O-]` here?
**A.** > 40 µM

**Q.** For `CCN(CC)CCC(=O)Nc1ccc(O)c2c1C(=O)c1cccc(O)c1C2=O`, which IC50 is on record?
**A.** > 40 µM

**Q.** With `CC1c2cc(Br)c(O)c(Br)c2OC(=O)C1Br` (stereo unspecified) as the compound, how does the IC50 read?
**A.** > 40 µM

Biological target: T1, Aurora kinase A (Homo sapiens, UniProt O14965)
T1 sequence (O14965 whole entry): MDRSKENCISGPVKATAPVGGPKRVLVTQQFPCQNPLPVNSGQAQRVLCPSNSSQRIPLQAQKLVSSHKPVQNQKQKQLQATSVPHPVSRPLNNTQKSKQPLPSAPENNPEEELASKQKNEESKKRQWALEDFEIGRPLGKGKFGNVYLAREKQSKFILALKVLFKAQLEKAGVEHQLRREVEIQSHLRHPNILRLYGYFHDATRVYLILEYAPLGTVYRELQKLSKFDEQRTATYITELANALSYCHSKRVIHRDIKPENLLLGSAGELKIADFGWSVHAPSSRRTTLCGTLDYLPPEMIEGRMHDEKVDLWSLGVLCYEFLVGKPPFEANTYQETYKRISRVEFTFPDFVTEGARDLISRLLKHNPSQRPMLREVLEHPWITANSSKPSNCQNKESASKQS
Experiment: Inhibition of Aurora A

**Q.** For `O=C1C=C(c2ccc(O)c(O)c2O)C(=O)c2c(O)ccc(O)c21`, which IC50 is on record?
**A.** 6.2 µM

**Q.** Which IC50 does the source give for `O=C1C=C(c2ccc(O)c(O)c2O)C(=O)c2c1cccc2[N+](=O)[O-]` here?
**A.** 4.8 µM

Test system: not listed separately
Experiment: Inhibition of CK2

**Q.** For `C[N+](C)(C)CC(=O)OCc1cc(O)c2c(c1)C(=O)c1cccc(O)c1C2=O`, which IC50 is on record?
**A.** > 40 µM

**Q.** Which IC50 does the source give for `Cc1coc2cc3oc(=O)c(NC(=O)CN)cc3cc12` here?
**A.** > 40 µM

**Q.** With `O=C1C=C(c2ccc(O)c(O)c2O)C(=O)c2c(O)ccc(O)c21` as the compound, how does the IC50 read?
**A.** 3.5 µM

**Q.** With `O=c1ccc2cc(S(=O)(=O)N3CCNCC3)cc(Cl)c2o1` as the compound, how does the IC50 read?
**A.** > 40 µM

**Q.** Which IC50 does the source give for `O=C1NC(=O)C(=Cc2ccc(O)cc2O)C(=O)N1` here?
**A.** > 40 µM

**Q.** With `C[N+]1(Cc2cc(O)c3c(c2)C(=O)c2cccc(O)c2C3=O)CCOCC1` as the compound, how does the IC50 read?
**A.** > 40 µM

**Q.** Which IC50 does the source give for `CN(C)c1ccc(C=C2C(=O)NC(=O)NC2=O)cc1` here?
**A.** > 40 µM

**Q.** Which IC50 does the source give for `Cc1ccc(S(=O)(=O)Oc2ccc3ccc(O)cc3c2)cc1` here?
**A.** > 40 µM

**Q.** With `O=C1C=C(c2ccc(O)c(O)c2O)C(=O)c2c1cccc2[N+](=O)[O-]` as the compound, how does the IC50 read?
**A.** 23 µM

**Q.** For `CCN(CC)CCC(=O)Nc1ccc(O)c2c1C(=O)c1cccc(O)c1C2=O`, which IC50 is on record?
**A.** > 40 µM

**Q.** With `CC1c2cc(Br)c(O)c(Br)c2OC(=O)C1Br` (stereo unspecified) as the compound, how does the IC50 read?
**A.** 2 µM

Test system: not listed separately
Experiment: Inhibition of PKA

**Q.** Which IC50 does the source give for `O=C1C=C(c2ccc(O)c(O)c2O)C(=O)c2c1cccc2[N+](=O)[O-]` here?
**A.** 14 µM
